Patent US20260137819A1 (Radionetics Oncology, Inc., priority 2022, published 2026)
Starred links: 1 amine or outer side, 2 acyl side, 3 side chain; linkers in the order of their positions; H or OH if unused. Non-standard residues stand in square brackets, D forms with d. Residues, ends and D or L forms follow the SMILES beside them. Groups on a side chain read outwards from the residue. *: point of attachment. X1 = COc1cc2c(cc1-c1cccc(N*)c1)-c1c(c(C(=O)N3CCOCC3(C)C)nn1-c1cc(Cl)cc(Cl)c1)CO2; DOTA = O=C(O)CN1CCN(CC(=O)O)CCN(CC(=O)*)CCN(CC(=O)O)CC1; Suc = O=C(CCC(=O)[*:2])[*:1]; Sar = CNCC(=O)O

Molecular target: T1, human follicle-stimulating hormone receptor (FSHR) (Homo sapiens, UniProt P23945)
T1 construct: host or cells: CHO-K1
T1 sequence (P23945 18-695): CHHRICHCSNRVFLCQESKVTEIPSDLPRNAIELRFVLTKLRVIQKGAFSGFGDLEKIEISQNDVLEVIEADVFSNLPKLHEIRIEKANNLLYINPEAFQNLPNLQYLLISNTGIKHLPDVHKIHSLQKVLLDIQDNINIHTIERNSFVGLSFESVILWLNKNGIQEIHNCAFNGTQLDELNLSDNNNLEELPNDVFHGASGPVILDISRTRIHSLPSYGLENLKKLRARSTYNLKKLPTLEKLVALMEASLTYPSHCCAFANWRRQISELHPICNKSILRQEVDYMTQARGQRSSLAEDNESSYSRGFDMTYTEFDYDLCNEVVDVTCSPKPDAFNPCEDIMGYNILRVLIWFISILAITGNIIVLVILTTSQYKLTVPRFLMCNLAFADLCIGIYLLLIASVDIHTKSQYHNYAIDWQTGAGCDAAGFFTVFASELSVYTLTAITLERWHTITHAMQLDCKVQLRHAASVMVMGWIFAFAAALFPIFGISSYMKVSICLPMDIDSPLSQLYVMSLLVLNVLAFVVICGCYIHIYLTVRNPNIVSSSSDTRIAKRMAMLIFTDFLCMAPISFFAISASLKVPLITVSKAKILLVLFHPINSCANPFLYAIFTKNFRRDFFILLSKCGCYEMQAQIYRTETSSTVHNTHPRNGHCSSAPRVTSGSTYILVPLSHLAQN
Test: Measurement of agonist cAMP production by activation of human FSHR
Type: cell-based
Settings: CHO-K1 human FSHR cells, 30 minutes at 37° C., HTRF cAMP kit; read-out: hFSHR Agonist cAMP EC50
Procedure, shortened: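 cAMP output was measured by HTRF after 30 min at 37 °C agonist exposure (0–10,000 nM final) in stably FSHR-transfected CHO-K1 cells. Lysate cAMP was read off a standard curve and fitted to obtain half-maximal EC50.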

Structure (SMILES)	EC50 [nM]
COc1cc2c(cc1-c1cccc(NC(=O)CCNC(=O)CN3CCC(NC(=O)CN4CCN(CC(=O)O)CCN(CC(=O)O)CCN(CC(=O)O)CC4)CC3)c1)-c1c(c(C(=O)N3CCOCC3(C)C)nn1-c1cc(Cl)cc(Cl)c1)CO2 [Compound 36, 2,2′,2″-(10-(2-((1-(2-((3-((3-(1-(3,5-dichlorophenyl)-3-(3,3dimethylmorpholine-4-carbonyl)-7-methoxy-1,4-dihydrochromeno|4,3-clpyrazol-8-yl)phenyl)amino)-3-oxopropyl)amino)-2-oxoethyl)piperidin-4-yl)amino)-2-oxoethyl)-1,4,7,10-tetraazacyclododecane-1,4,7-triyl)triacetic acid]	< 10
COc1cc2c(cc1-c1cccc(NC(=O)CCC(=O)N(C)CC(=O)N(C)CC(=O)N(C)CC(=O)N[C@H](CCCCNC(=O)CN3CCN(CC(=O)O)CCN(CC(=O)O)CCN(CC(=O)O)CC3)C(=O)N[C@H](CCC(=O)O)C(=O)N[C@H](Cc3ccc(O)cc3)C(=O)N[C@H](CCCCN)C(=O)N[C@H](CCC(=O)O)C(=O)N[C@H](CCC(=O)O)C(=O)N[C@H](CCC(=O)O)C(=O)N[C@H](CCC(=O)O)C(=O)N[C@H](CCCCN)C(N)=O)c1)-c1c(c(C(=O)N3CCOCC3(C)C)nn1-c1cc(Cl)cc(Cl)c1)CO2 [Compound 98] ({X1-Suc}-[Sar][Sar][Sar][dK](DOTA)[dE][dY][dK][dE][dE][dE][dE][dK]-NH2)	10 to 100
COc1cc2c(cc1-c1cccc(NC(=O)[C@H](CS(=O)(=O)O)NC(=O)CN3CCN(CC(=O)O)CCN(CC(=O)O)CCN(CC(=O)O)CC3)c1)-c1c(c(C(=O)N3CCOCC3(C)C)nn1-c1cc(Cl)cc(Cl)c1)CO2 [Compound 33, (R)-2,2′,2″-(10-(2-((1-((3-(1-(3,5-dichlorophenyl)-3-(3,3-dimethylmorpholine-4-carbonyl)-7-methoxy-1,4-dihydrochromeno|4,3-c|pyrazol-8-yl)phenyl)amino)-1-oxo-3-sulfopropan-2-yl)amino)-2-oxoethyl)-1,4,7,10-tetraazacyclododecane-1,4,7-triyl)triacetic acid]	> 100
COc1cc2c(cc1-c1ccc(NC(=O)NCCOCCOCCOCCOCCNC(=O)CN3CCN(CC(=O)O)CCN(CC(=O)O)CCN(CC(=O)O)CC3)cc1)-c1c(c(C(=O)N(C)C(C)(C)C)nn1-c1cc(Cl)cc(Cl)c1)CO2 [Compound 6, 2,2′,2″-(10-(1-((4-(3-(tert-butyl(methyl)carbamoyl)-1-(3,5-dichlorophenyl)-7-methoxy-1,4-dihydrochromeno|4,3-clpyrazol-8-yl)phenyl)amino)-1,18-dioxo-5,8,11,14-tetraoxa-2,17-diazanonadecan-19-yl)-1,4,7,10-tetraazacyclododecane-1,4,7-triyl)triacetic acid]	< 10
COc1cc2c(cc1-c1cccc(NC(=O)CCC(=O)N(CCOCCOCCC(=O)O)C3CCN(C(=O)CN4CCN(CC(=O)O)CCN(CC(=O)O)CCN(CC(=O)O)CC4)CC3)c1)-c1c(c(C(=O)N3CCOCC3(C)C)nn1-c1cc(Cl)cc(Cl)c1)CO2 [Compound 15, 2,2′,2″-(10-(2-(4-(N-(2-(2-(2-carboxyethoxy)ethoxy)ethyl)-4-((3-(1-(3,5-dichlorophenyl)-3-(3,3-dimethylmorpholine-4-carbonyl)-7-methoxy-1,4-dihydrochromeno[4,3-c]pyrazol-8-yl)phenyl)amino)-4-oxobutanamido)piperidin-1-yl)-2-oxoethyl)-1,4,7,10-tetraazacyclododecane-1,4,7-triyl)triacetic acid]	< 10
COc1cc2c(cc1-c1cccc(NC(=O)CCC(=O)N(CCOCCOCCOCCOCCOCCC(=O)O)C3CCN(C(=O)CN4CCN(CC(=O)O)CCN(CC(=O)O)CCN(CC(=O)O)CC4)CC3)c1)-c1c(c(C(=O)N3CCOCC3(C)C)nn1-c1cc(Cl)cc(Cl)c1)CO2 [Compound 45, 2,2′,2″-(10-(2-(4-(N-(17-carboxy-3,6,9,12,15-pentaoxaheptadecyl)-4-((3-(1-(3,5dichlorophenyl)-3-(3,3-dimethylmorpholine-4-carbonyl)-7-methoxy-1,4-dihydrochromeno|4,3-clpyrazol-8-yl)phenyl)amino)-4-oxobutanamido)piperidin-1-yl)-2-oxoethyl)-1,4,7,10-tetraazacyclododecane-1,4,7-triyl)triacetic acid]	< 10
COc1cc2c(cc1-c1cccc(NC(=O)NCCOCCOCCOCCOCCOCCOCCNC(=O)CN3CCN(CC(=O)O)CCN(CC(=O)O)CCN(CC(=O)O)CC3)c1)-c1c(c(C(=O)N3CCOCC3(C)C)nn1-c1cc(Cl)cc(Cl)c1)CO2 [Compound 7]	< 10
COc1cc2c(cc1-c1cccc(NC(=O)CCC(=O)NCCCC[C@@H](NC(=O)[C@@H](CCC(=O)O)NC(=O)[C@@H](CCCNC(=N)N)NC(=O)[C@@H](C)NC(=O)CN3CCN(CC(=O)O)CCN(CC(=O)O)CCN(CC(=O)O)CC3)C(=O)N[C@H](CCCNC(=N)N)C(=O)N[C@H](CCC(=O)O)C(=O)N[C@H](C)C(N)=O)c1)-c1c(c(C(=O)N3CCOCC3(C)C)nn1-c1cc(Cl)cc(Cl)c1)CO2 [Compound 83, 2,2′,2″-(10-((4R,7R,10R,13R,16R,19R,22R)-23-amino-10,19-bis(2carboxyethyl)-13-(4-(4-((3-(1-(3,5-dichlorophenyl)-3-(3,3-dimethylmorpholine-4-carbonyl)-7-methoxy-1,4-dihydrochromeno|4,3-c|pyrazol-8-yl)phenyl)amino)-4-oxobutanamido)butyl)-7,16-bis(3-guanidinopropyl)-4,22-dimethyl-2,5,8,11,14,17,20,23-octaoxo-3,6,9,12,15,18,21-heptaazatricosyl)-1,4,7,10-tetraazacyclododecane-1,4,7-triyl)triacetic acid] ({DOTA}-[dA][dR][dE][dK]([Suc-X1])[dR][dE][dA]-NH2)	10 to 100
COc1cc2c(cc1-c1cncc(NC(=O)CCOCCOCCOCCOCCNC(=O)[C@H](CS(=O)(=O)O)NC(=O)CN3CCN(CC(=O)O)CCN(CC(=O)O)CCN(CC(=O)O)CC3)c1)-c1c(c(C(=O)N3CCOCC3(C)C)nn1-c1cc(Cl)cc(Cl)c1)CO2 [Compound 80]	10 to 100
COc1cc2c(cc1-c1cccc(NC(=O)CCC(=O)NCCCC[C@@H](NC(=O)[C@@H](CO)NC(=O)[C@@H](CC(N)=O)NC(=O)[C@@H](CO)NC(=O)[C@@H](CC(N)=O)NC(=O)[C@@H](C)NC(=O)CN3CCN(CC(=O)O)CCN(CC(=O)O)CCN(CC(=O)O)CC3)C(=O)N[C@H](C)C(N)=O)c1)-c1c(c(C(=O)N3CCOCC3(C)C)nn1-c1cc(Cl)cc(Cl)c1)CO2 [Compound 85] ({DOTA}-[dA][dN][dS][dN][dS][dK]([Suc-X1])[dA]-NH2)	10 to 100
COc1cc2c(cc1-c1cccc(NC(=O)CCC(=O)NCCCC[C@@H](NC(=O)[C@@H](C)NC(=O)[C@@H](C)NC(=O)[C@@H](CC(N)=O)NC(=O)[C@@H](CC(=O)O)NC(=O)[C@@H](CCCNC(=N)N)NC(=O)[C@@H](C)NC(=O)CN3CCN(CC(=O)O)CCN(CC(=O)O)CCN(CC(=O)O)CC3)C(N)=O)c1)-c1c(c(C(=O)N3CCOCC3(C)C)nn1-c1cc(Cl)cc(Cl)c1)CO2 [Compound 91] ({DOTA}-[dA][dR][dD][dN][dA][dA][dK]([Suc-X1])-NH2)	10 to 100
COc1cc2c(cc1-c1cccc(NC(=O)CCC(=O)NCCCC[C@@H](NC(=O)[C@@H](C)NC(=O)CN3CCN(CC(=O)O)CCN(CC(=O)O)CCN(CC(=O)O)CC3)C(=O)N[C@H](CCC(=O)O)C(=O)N[C@H](CCC(=O)O)C(=O)N[C@H](CCC(=O)O)C(=O)N[C@H](CCC(=O)O)C(=O)N[C@H](C)C(N)=O)c1)-c1c(c(C(=O)N3CCOCC3(C)C)nn1-c1cc(Cl)cc(Cl)c1)CO2 [Compound 87, 2,2′,2″-(10-((4R,7R,10R,13R,16R,19R,22R)-23-amino-10,13,16,19-tetrakis(2carboxyethyl)-7-(4-(4-((3-(1-(3,5-dichlorophenyl)-3-(3,3-dimethylmorpholine-4-carbonyl)-7-methoxy-1,4-dihydrochromeno|4,3-c|pyrazol-8-yl)phenyl)amino)-4-oxobutanamido)butyl)-4,22-dimethyl-2,5,8,11,14,17,20,23-octaoxo-3,6,9,12,15,18,21-heptaazatricosyl)-1,4,7,10-tetraazacyclododecane-1,4,7-triyl)triacetic acid] ({DOTA}-[dA][dK]([Suc-X1])[dE][dE][dE][dE][dA]-NH2)	10 to 100

Same assay, conditions: hFSHR Agonist cAMP EC50, CHO-K1 human FSHR cells, 30 minutes at 37° C., HTRF cAMP kit

Structure (SMILES)	EC50 [nM]
COc1cc2c(cc1-c1cccc(NC(=O)CCOCCOCCOCCOCCNC(=O)CN3CCN(CC(=O)O)CCN(CC(=O)O)CCN(CC(=O)O)CC3)c1)-c1c(c(C(=O)N3CCOCC3(C)C)nn1-c1cc(Cl)cc(Cl)c1)CO2 [Compound 17B]	< 10
